Measured values: PMC10318822, “Phase 1 dose-escalation study to evaluate the safety, tolerability, pharmacokinetics, and anti-tumor activity of FCN-159 in adults with neurofibromatosis type 1-related unresectable plexiform neurofibromas” (BMC Medicine, 2023)
Values joined by “and” are separate entries in the source; they are usually repeats but may differ in a detail not shown here. Identical values can stand only once.

Tested on: adult patients with NF1-related PN
Assay: Phase I dose-escalation: DLT, MTD, RP2D and drug-related TEAEs (CTCAE v5.0)
Method: This is a multicenter, open-label, single-arm, non-randomized, phase I dose-escalation trial to evaluate the safety, tolerability, pharmacokinetic (PK), and anti-tumor activity of orally administered FCN-159 in adult patients with NF1 (NCT04954001). Phase I commenced with dose escalation in adult patients following a standard 3 + 3 design (Supplementary Table S1) to determine the maximum tolerated dose (MTD) of FCN-159 administered daily under fasting conditions (defined as no food or drink 1 h before and 2 h after each dose) in 28-day cycles. Study drug was dispensed at the study site and patient adherence was monitored by the records of drug dispensation and return. Patients were on treatment until PD, death, patient's voluntary withdrawal from study treatment, or study termination. The study was followed for 2 years after the last patient in. The starting dose was 4 mg, escalating in cohorts of at least three evaluable patients at 6 mg, 8 mg, and 12 mg until the MTD was determined. The starting dose in this study was determined based on available data from a phase 1a, first-in-human study of FCN-159 in patients with advanced NRAS ^mut+ melanoma at the time of study design. […] Dose expansion at a likely RP2D level enrolled approximately six patients. The highest dose level with a dose-limiting toxicity (DLT) incidence rate ≤ 33% (0/3 or 1/6 patients) was to be considered the MTD. If patients experienced grade ≥ 3 and/or unacceptable toxic events that were considered as at least possibly related to the study treatment, the study treatment was discontinued and supportive treatment was given in accordance with local treatment routines. If the toxicity returned to grade ≤ 2 within 28 days after the occurrence, and there was no progression on patients’ conditions or the investigator believed that patients could benefit from the study treatment, the original dose could be maintained or reduced after discussion with medical monitor. After completion of the dose escalation part of the study, PK, efficacy, safety, and tolerability data were analyzed to select the RP2D.
Primary endpoints of the study were the DLT incidence rate, MTD, and RP2D. Secondary endpoints included other safety assessments, imaging tumor response (complete response [CR], PR, stable disease [SD], or progressive disease [PD]), and PK parameters of FCN-159. Adverse events were graded per CTCAE v5.0.
All patients underwent a complete medical history, physical examination, Eastern Cooperative Oncology Group (ECOG) assessment, and laboratory analysis of test results. Drug-related TEAEs, serious adverse events (SAEs), TEAEs of grade ≥ 3 toxicity, and TEAEs leading to drug discontinuation were reviewed on an ongoing basis. Efficacy was assessed by radiologic scans and clinical assessment. Tumor assessments per Response Evaluation in Neurofibromatosis Schwannomatosis criteria were performed by investigators using MRI volumetric analysis every 4 cycles within the first 2 years (± 7 days) and every 6 cycles after 2 years (± 14 days) until PD, death, patient's voluntary withdrawal from study treatment, or study termination. MRI sequences of […], T1- and T2-weighted sequences were chosen and the software of Extended Brilliance Workspace, SIGNA Premier and uExceed were used for MRI volumetric analysis. The same software was used for all tumor assessments at baseline and subsequent assessed timepoints of the same patient. Pain was assessed by an 11-point numerical rating scale (NRS-11).
The sample size for the dose-escalation study was estimated to be 24 based on the 3 + 3 method. Safety was analyzed in patients who received at least one dose of FCN-159 and had at least one safety assessment. DLT was assessed in the DLT analysis set, defined as patients who were enrolled in the dose-escalation study and met the DLT evaluation criteria.

Cn1c(=O)c(F)c(Nc2ccc(I)cc2F)c2c(=O)n(C3CC3)nc(-c3cccc(NS(=O)(=O)C4CC4)c3)c21 [FCN-159]
Drug-related TEAE: Mouth ulceration (8 mg (N = 8)): 1 (12.5) n (%) | Drug-related TEAE: Muscular weakness (8 mg (N = 8)): 1 (12.5) n (%) | Drug-related TEAE: Oedema peripheral (8 mg (N = 8)): 0 n (%) | Drug-related TEAE: Pain in extremity (8 mg (N = 8)): 0 n (%) | Drug-related TEAE: Paronychia (8 mg (N = 8)): 3 (37.5) n (%) | Drug-related TEAE: Prealbumin decreased (8 mg (N = 8)): 1 (12.5) n (%) | Drug-related TEAE: Protein urine present (8 mg (N = 8)): 2 (25.0) n (%) | Drug-related TEAE: Pruritus (8 mg (N = 8)): 1 (12.5) n (%) | Drug-related TEAE: QRS axis abnormal (8 mg (N = 8)): 0 n (%) | Drug-related TEAE: Rash (8 mg (N = 8)): 1 (12.5) n (%) | Drug-related TEAE: Sinus arrhythmia (8 mg (N = 8)): 0 n (%) | Drug-related TEAE: Sinus bradycardia (8 mg (N = 8)): 0 n (%) | Drug-related TEAE: Sinusitis (8 mg (N = 8)): 0 n (%) | Drug-related TEAE: Skin exfoliation (8 mg (N = 8)): 1 (12.5) n (%) | Drug-related TEAE: Specific gravity urine increased (8 mg (N = 8)): 2 (25.0) n (%) | Drug-related TEAE: Stomatitis (8 mg (N = 8)): 3 (37.5) n (%) | Drug-related TEAE: Supraventricular extrasystoles (8 mg (N = 8)): 0 n (%) | Drug-related TEAE: Total bile acids increased (8 mg (N = 8)): 0 n (%) | Drug-related TEAE: Tricuspid valve incompetence (8 mg (N = 8)): 2 (25.0) n (%) | Drug-related TEAE: Urinary occult blood positive (8 mg (N = 8)): 2 (25.0) n (%) | Drug-related TEAE: Urinary sediment present (8 mg (N = 8)): 1 (12.5) n (%) | Drug-related TEAE: Urinary tract infection (8 mg (N = 8)): 0 n (%) | Drug-related TEAE: Urine ketone body present (8 mg (N = 8)): 2 (25.0) n (%) | Drug-related TEAE: Urobilinogen urine increased (8 mg (N = 8)): 1 (12.5) n (%) | Drug-related TEAE: Urticaria (8 mg (N = 8)): 0 n (%) | Drug-related TEAE: Vision blurred (8 mg (N = 8)): 1 (12.5) n (%) | Drug-related TEAE: Visual acuity reduced (8 mg (N = 8)): 0 n (%) | Drug-related TEAE: pH urine decreased (8 mg (N = 8)): 2 (25.0) n (%) | Drug-related TEAE: pH urine increased (8 mg (N = 8)): 1 (12.5) n (%) | Subjects with any drug-related TEAE (8 mg (N = 8)): 8 (100) n (%) | Patients with DLT (grade 3 folliculitis) (8 mg, 1 of 8 patients): 16.7% and 12.5% | Subjects with grade 3 AEs (12 mg): four | Drug-related TEAE: Abdominal pain (12 mg (N = 4)): 0 n (%) | Drug-related TEAE: Acne (12 mg (N = 4)): 0 n (%) | Drug-related TEAE: Acne pustular (12 mg (N = 4)): 0 n (%) | Drug-related TEAE: Alanine aminotransferase increased (12 mg (N = 4)): 0 n (%) | Drug-related TEAE: Albumin globulin ratio decreased (12 mg (N = 4)): 0 n (%) | Drug-related TEAE: Alopecia (12 mg (N = 4)): 3 (75.0) n (%) | Drug-related TEAE: Amylase increased (12 mg (N = 4)): 1 (25.0) n (%) | Drug-related TEAE: Anemia (12 mg (N = 4)): 0 n (%) | Drug-related TEAE: Aortic dilatation (12 mg (N = 4)): 0 n (%) | Drug-related TEAE: Aspartate aminotransferase increased (12 mg (N = 4)): 0 n (%) | Drug-related TEAE: Asthenia (12 mg (N = 4)): 0 n (%) | Drug-related TEAE: Beta globulin decreased (12 mg (N = 4)): 0 n (%) | Drug-related TEAE: Beta globulin increased (12 mg (N = 4)): 0 n (%) | Drug-related TEAE: Blood alkaline phosphatase increased (12 mg (N = 4)): 2 (50.0) n (%) | Drug-related TEAE: Blood bilirubin increased (12 mg (N = 4)): 0 n (%) | Drug-related TEAE: Blood creatine phosphokinase increased (12 mg (N = 4)): 0 n (%) | Drug-related TEAE: Blood fibrinogen increased (12 mg (N = 4)): 4 (100) n (%) | Drug-related TEAE: Blood lactate dehydrogenase increased (12 mg (N = 4)): 1 (25.0) n (%) | Drug-related TEAE: Blood pressure increased (12 mg (N = 4)): 1 (25.0) n (%) | Drug-related TEAE: Blood urea increased (12 mg (N = 4)): 0 n (%) | Drug-related TEAE: Blood uric acid increased (12 mg (N = 4)): 0 n (%) | Drug-related TEAE: Breath odor (12 mg (N = 4)): 0 n (%) | Drug-related TEAE: Capillary disorder (12 mg (N = 4)): 0 n (%) | Drug-related TEAE: Constipation (12 mg (N = 4)): 2 (50.0) n (%) | Drug-related TEAE: Decreased appetite (12 mg (N = 4)): 0 n (%) | Drug-related TEAE: Dermatitis acneiform (12 mg (N = 4)): 0 n (%) | Drug-related TEAE: Diarrhea (12 mg (N = 4)): 0 n (%) | Drug-related TEAE: Drug eruption (12 mg (N = 4)): 0 n (%) | Drug-related TEAE: Dyslipidemia (12 mg (N = 4)): 0 n (%) | Drug-related TEAE: Ejection fraction decreased (12 mg (N = 4)): 0 n (%) | Drug-related TEAE: Electrocardiogram QT prolonged (12 mg (N = 4)): 0 n (%) | Drug-related TEAE: Electrocardiogram abnormal (12 mg (N = 4)): 2 (50.0) n (%) | Drug-related TEAE: Epistaxis (12 mg (N = 4)): 0 n (%) | Drug-related TEAE: Folliculitis (12 mg (N = 4)): 4 (100) n (%) | Drug-related TEAE: Functional gastrointestinal disorder (12 mg (N = 4)): 0 n (%) | Drug-related TEAE: Gamma-glutamyltransferase increased (12 mg (N = 4)): 0 n (%) | Drug-related TEAE: Gingival pain (12 mg (N = 4)): 0 n (%) | Drug-related TEAE: Hyperlipidemia (12 mg (N = 4)): 1 (25.0) n (%) | Drug-related TEAE: Hypertension (12 mg (N = 4)): 0 n (%) | Drug-related TEAE: Hypoalbuminemia (12 mg (N = 4)): 0 n (%) | Drug-related TEAE: Hypocalcemia (12 mg (N = 4)): 0 n (%) | Drug-related TEAE: Hypophosphatemia (12 mg (N = 4)): 0 n (%) | Drug-related TEAE: Hypoproteinemia (12 mg (N = 4)): 0 n (%) | Drug-related TEAE: Immunoglobulins increased (12 mg (N = 4)): 0 n (%) | Drug-related TEAE: Impetigo (12 mg (N = 4)): 0 n (%) | Drug-related TEAE: Left atrial enlargement (12 mg (N = 4)): 0 n (%) | Drug-related TEAE: Lipoprotein abnormal (12 mg (N = 4)): 0 n (%) | Drug-related TEAE: Malaise (12 mg (N = 4)): 0 n (%) | Drug-related TEAE: Menstrual disorder (12 mg (N = 4)): 2 (50.0) n (%) | Drug-related TEAE: Mitral valve incompetence (12 mg (N = 4)): 1 (25.0) n (%) | Drug-related TEAE: Mouth ulceration (12 mg (N = 4)): 3 (75.0) n (%) | Drug-related TEAE: Muscular weakness (12 mg (N = 4)): 0 n (%) | Drug-related TEAE: Oedema peripheral (12 mg (N = 4)): 0 n (%) | Drug-related TEAE: Pain in extremity (12 mg (N = 4)): 0 n (%) | Drug-related TEAE: Paronychia (12 mg (N = 4)): 0 n (%) | Drug-related TEAE: Prealbumin decreased (12 mg (N = 4)): 0 n (%) | Drug-related TEAE: Protein urine present (12 mg (N = 4)): 0 n (%) | Drug-related TEAE: Pruritus (12 mg (N = 4)): 0 n (%) | Drug-related TEAE: QRS axis abnormal (12 mg (N = 4)): 3 (75.0) n (%) | Drug-related TEAE: Rash (12 mg (N = 4)): 0 n (%) | Drug-related TEAE: Sinus arrhythmia (12 mg (N = 4)): 0 n (%) | Drug-related TEAE: Sinus bradycardia (12 mg (N = 4)): 0 n (%) | Drug-related TEAE: Sinusitis (12 mg (N = 4)): 1 (25.0) n (%) | Drug-related TEAE: Skin exfoliation (12 mg (N = 4)): 0 n (%) | Drug-related TEAE: Specific gravity urine increased (12 mg (N = 4)): 0 n (%) | Drug-related TEAE: Stomatitis (12 mg (N = 4)): 0 n (%) | Drug-related TEAE: Supraventricular extrasystoles (12 mg (N = 4)): 0 n (%) | Drug-related TEAE: Total bile acids increased (12 mg (N = 4)): 0 n (%) | Drug-related TEAE: Tricuspid valve incompetence (12 mg (N = 4)): 0 n (%) | Drug-related TEAE: Urinary occult blood positive (12 mg (N = 4)): 0 n (%) | Drug-related TEAE: Urinary sediment present (12 mg (N = 4)): 0 n (%) | Drug-related TEAE: Urinary tract infection (12 mg (N = 4)): 0 n (%) | Drug-related TEAE: Urine ketone body present (12 mg (N = 4)): 0 n (%) | Drug-related TEAE: Urobilinogen urine increased (12 mg (N = 4)): 0 n (%)
